According to article PMC10945501, “Development and In Vivo Evaluation of Small-Molecule Ligands for Positron Emission Tomography of Immune Checkpoint Modulation Targeting Programmed Cell Death 1 Ligand 1” (Journal of Medicinal Chemistry, 2024):
Read-outs that look alike come from different tables or passages of the source.

How the values were obtained:
human PD-L1 = target: T1, human PD-L1 (Homo sapiens, UniProt Q9NZQ7); test: HTRF PD-1/PD-L1 binding assay (cell-free); settings: for fold reduction of affinity, pyrrole at R1 vs 1,4-benzodioxanyl analogue / fold decrease in affinity by methylation at R3*: IC50 ratio; for fold reduction of affinity, pyrrole at R1 vs 1,4-benzodioxanyl analogue: pairs 4c vs 4m, 4e vs 4n, 4f vs 4o, 5c vs 5f; for fold decrease in affinity by methylation at R3*: pairs 4c vs 5a, 4c vs 5b, 4e vs 5c, 4e vs 5d
T1 construct: purchased Cisbio Bioassays SAS, Codolet, France 64PD1PEG

[1] = Lipophilicity by HPLC method (μHPLC logD); settings: for μHPLC logD: pH 7.4; for chromatographic logD: pH 7.4, μHPLC logD
[2] = cell-free competitive PD-1/PD-L1 HTRF, mean ± SD, read-out: IC50 (hPD-L1 binding affinity, HTRF)
[3] = no full dose–response curves observed, values are relative IC50, read-out: relative IC50 (hPD-L1 binding affinity, HTRF)

T1 sequence (Q9NZQ7 19-238 limits assumed): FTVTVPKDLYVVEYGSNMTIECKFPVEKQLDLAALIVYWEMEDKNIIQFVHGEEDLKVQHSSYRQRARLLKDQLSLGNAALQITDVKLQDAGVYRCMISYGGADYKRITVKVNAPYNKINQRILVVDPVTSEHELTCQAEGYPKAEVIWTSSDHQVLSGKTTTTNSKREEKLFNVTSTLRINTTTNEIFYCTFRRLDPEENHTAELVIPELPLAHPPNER

Structure (SMILES)	IC50 (human PD-L1; [2]) [nM]	IC50 (human PD-L1; [3]) [nM]	μHPLC logD [1]	chromatographic logD [1]	fold reduction of affinity, pyrrole at R1 vs 1,4-benzodioxanyl analogue (human PD-L1) [fold]	fold decrease in affinity by methylation at R3* (human PD-L1) [fold]
Cc1c(COc2cc(O)c(C=O)cc2Cl)cccc1-c1ccccc1 [Compound 2b, 5-Chloro-2-hydroxy-4-((2-methyl-[1,1′-biphenyl]-3-yl)methoxy)benzaldehyde]	> 100000					
Cc1c(COc2cc(O)c(C=O)cc2Cl)cccc1-c1ccc2c(c1)OCCO2 [Compound 2c, 5-Chloro-4-((3-(2,3-dihydrobenzo[b][1,4]dioxin-6-yl)-2-methylbenzyl)oxy)-2-hydroxybenzaldehyde]	> 100000					
Cc1c(COc2cc(OCc3cccc(C#N)c3)c(C=O)cc2Cl)cccc1-c1ccccc1 [Compound 3a, 3-((4-Chloro-2-formyl-5-((2-methyl-[1,1′-biphenyl]-3-yl)methoxy)phenoxy)methyl)benzonitrile]		1300				
Cc1c(COc2cc(OCc3ccnc(C#N)c3)c(C=O)cc2Cl)cccc1-c1ccc2c(c1)OCCO2 [Compound 3b, 4-((4-Chloro-5-((3-(2,3-dihydrobenzo[b][1,4]dioxin-6-yl)-2-methylbenzyl)oxy)-2-formylphenoxy)methyl)picolinonitrile]		207 ± 340				
Cc1c(COc2cc(OCc3cccc(C#N)c3)c(C=O)cc2Cl)cccc1-c1ccc2c(c1)OCCO2 [Compound 3c, 3-((4-Chloro-5-((3-(2,3-dihydrobenzo[b][1,4]dioxin-6-yl)-2-methylbenzyl)oxy)-2-formylphenoxy)methyl)benzonitrile]	> 5000					
Cc1c(COc2cc(OCc3cocn3)c(C=O)cc2Cl)cccc1-c1ccc2c(c1)OCCO2 [Compound 3d, 5-Chloro-4-((3-(2,3-dihydrobenzo[b][1,4]dioxin-6-yl)-2-methylbenzyl)oxy)-2-(oxazol-4-ylmethoxy)benzaldehyde]	> 5000					
Cc1c(COc2cc(OCc3ccnc(C#N)c3)c(C=O)cc2Cl)cccc1-n1cccc1 [Compound 3e, 4-((4-Chloro-2-formyl-5-((2-methyl-3-(1H-pyrrol-1-yl)benzyl)oxy)phenoxy)methyl)picolinonitrile]	> 5000					
CC(=O)NCCNCc1cnc(OCc2cccc(-c3ccccc3)c2C)c(Cl)c1 [Compound 4a, N-(2-(((5-Chloro-6-((2-methyl-[1,1′-biphenyl]-3-yl)methoxy)pyridin-3-yl)methyl)amino)ethyl)acetamide]	> 50000		2.3 ± 0.1	2.33 ± 0.14		
Cc1c(COc2cc(OCc3cccc(C#N)c3)c(CN[C@H](CO)C(=O)O)cc2Cl)cccc1-c1ccccc1 [Compound 4b, (5-Chloro-2-((3-cyanobenzyl)oxy)-4-((2-methyl-[1,1′-biphenyl]-3-yl)methoxy)benzyl)-D-serine]	6.7 ± 0.4			3.46 ± 0.05		
Cc1c(COc2cc(OCc3ccnc(C#N)c3)c(CN[C@H](CO)C(=O)O)cc2Cl)cccc1-c1ccc2c(c1)OCCO2 [Compound 4c, (5-Chloro-2-((2-cyanopyridin-4-yl)methoxy)-4-((3-(2,3-dihydrobenzo[b][1,4]dioxin-6-yl)-2-methylbenzyl)oxy)benzyl)-D-serine]	6.1 ± 0.3			3.25 ± 0.03		
CC(=O)NCCNCc1cc(Cl)c(OCc2cccc(-c3ccc4c(c3)OCCO4)c2C)cc1OCc1ccnc(C#N)c1 [Compound 4d, N-(2-((5-Chloro-2-((2-cyanopyridin-4-yl)methoxy)-4-((3-(2,3-dihydrobenzo [b][1,4]dioxin-6-yl)-2-methylbenzyl)oxy)benzyl)amino)ethyl)acetamide]	9.2 ± 0.6		4.5 ± 0.2	4.45 ± 0.2		
Cc1c(COc2cc(OCc3ccnc(C#N)c3)c(CNCCO)cc2Cl)cccc1-c1ccc2c(c1)OCCO2 [Compound 4e, 4-((4-Chloro-5-((3-(2,3-dihydrobenzo[b][1,4]dioxin-6-yl)-2-methylbenzyl)oxy)-2-(((2-hydroxyethyl)amino)methyl)phenoxy)methyl)picolinonitrile]	7.7 ± 0.6		4.7 ± 0.2	4.71 ± 0.24		
Cc1c(COc2cc(OCc3ccnc(C#N)c3)c(CN3CCCC[C@H]3C(=O)O)cc2Cl)cccc1-c1ccc2c(c1)OCCO2 [Compound 4f, (S)-1-(5-Chloro-2-((2-cyanopyridin-4-yl)methoxy)-4-((3-(2,3-dihydrobenzo [b][1,4]dioxin-6-yl)-2-methylbenzyl)oxy)benzyl)piperidine-2-carboxylic Acid]	4.9 ± 0.3			3.64 ± 0.09		
Cc1c(COc2cc(OCc3ccnc(C#N)c3)c(CNCCOCCOCCOCCOCCC(=O)O)cc2Cl)cccc1-c1ccc2c(c1)OCCO2 [Compound 4g, 1-(5-Chloro-2-((2-cyanopyridin-4-yl)methoxy)-4-((3-(2,3-dihydrobenzo [b][1,4]dioxin-6-yl)-2-methylbenzyl)oxy)phenyl)-5,8,11,14-tetraoxa-2-azaheptadecan-17-oic Acid]	46 ± 5			3.42 ± 0.05		
C#CCC[C@H](NCc1cc(Cl)c(OCc2cccc(-c3ccc4c(c3)OCCO4)c2C)cc1OCc1ccnc(C#N)c1)C(=O)O [Compound 4h, (S)-2-((5-Chloro-2-((2-cyanopyridin-4-yl)methoxy)-4-((3-(2,3-dihydrobenzo [b][1,4]dioxin-6-yl)-2-methylbenzyl)oxy)benzyl)amino)hex-5-ynoic Acid]	8.2 ± 1.8			3.42 ± 0.05		

Now from value to molecule:

IC50 (human PD-L1; [2]) [nM]	IC50 (human PD-L1; [3]) [nM]	μHPLC logD [1]	chromatographic logD [1]	fold reduction of affinity, pyrrole at R1 vs 1,4-benzodioxanyl analogue (human PD-L1) [fold]	fold decrease in affinity by methylation at R3* (human PD-L1) [fold]	Structure (SMILES)
3.7 ± 0.5			3.47 ± 0.06			C#CCOC(=O)NCCCC[C@H](NCc1cc(Cl)c(OCc2cccc(-c3ccc4c(c3)OCCO4)c2C)cc1OCc1ccnc(C#N)c1)C(=O)O [Compound 4i, N^2-(5-Chloro-2-((2-cyanopyridin-4-yl)methoxy)-4-((3-(2,3-dihydrobenzo[b][1,4]dioxin-6-yl)-2-methylbenzyl)oxy)benzyl)-N^6-((prop-2-yn-1-yloxy)carbonyl)-L-lysine]
11 ± 1		4.7 ± 0.2	4.73 ± 0.24			CC(=O)NCCNCc1cc(Cl)c(OCc2cccc(-c3ccc4c(c3)OCCO4)c2C)cc1OCc1cccc(C#N)c1 [Compound 4j, N-(2-((5-Chloro-2-((3-cyanobenzyl)oxy)-4-((3-(2,3-dihydrobenzo[b][1,4]dioxin-6-yl)-2-methylbenzyl)oxy)benzyl)amino)ethyl)acetamide]
50 ± 7		4.2 ± 0.2	4.21 ± 0.16			CC(=O)NCCNCc1cc(Cl)c(OCc2cccc(-c3ccc4c(c3)OCCO4)c2C)cc1OCc1cocn1 [Compound 4k, N-(2-((5-Chloro-4-((3-(2,3-dihydrobenzo[b][1,4]dioxin-6-yl)-2-methylbenzyl)oxy)-2-(oxazol-4-ylmethoxy)benzyl)amino)ethyl)acetamide]
16 ± 3			3.39 ± 0.04			Cc1c(COc2cc(OCc3cocn3)c(CN3CCCC[C@H]3C(=O)O)cc2Cl)cccc1-c1ccc2c(c1)OCCO2 [Compound 4l, (S)-1-(5-Chloro-4-((3-(2,3-dihydrobenzo[b][1,4]dioxin-6-yl)-2-methylbenzyl)oxy)-2-(oxazol-4-ylmethoxy)benzyl)piperidine-2-carboxylic Acid]
6 ± 1			2.83 ± 0.04	1.03		Cc1c(COc2cc(OCc3ccnc(C#N)c3)c(CN[C@H](CO)C(=O)O)cc2Cl)cccc1-n1cccc1 [Compound 4m, (5-Chloro-2-((2-cyanopyridin-4-yl)methoxy)-4-((2-methyl-3-(1H-pyrrol-1-yl)benzyl)oxy)benzyl)-D-serine]
50 ± 3		4.3 ± 0.2	4.34 ± 0.18	6.40		Cc1c(COc2cc(OCc3ccnc(C#N)c3)c(CNCCO)cc2Cl)cccc1-n1cccc1 [Compound 4n, 4-((4-Chloro-2-(((2-hydroxyethyl)amino)methyl)-5-((2-methyl-3-(1H-pyrrol-1-yl)benzyl)oxy)phenoxy)methyl)picolinonitrile]
29 ± 3			3.14 ± 0.01	5.99		Cc1c(COc2cc(OCc3ccnc(C#N)c3)c(CN3CCCC[C@H]3C(=O)O)cc2Cl)cccc1-n1cccc1 [Compound 4o, (S)-1-(5-Chloro-2-((2-cyanopyridin-4-yl)methoxy)-4-((2-methyl-3-(1H-pyrrol-1-yl)benzyl)oxy)benzyl)piperidine-2-carboxylic Acid]
30 ± 8		4.9 ± 0.3	4.88 ± 0.26		4.98	COC(=O)[C@@H](CO)NCc1cc(Cl)c(OCc2cccc(-c3ccc4c(c3)OCCO4)c2C)cc1OCc1ccnc(C#N)c1 [Compound 5b, Methyl (5-Chloro-2-((2-cyanopyridin-4-yl)methoxy)-4-((3-(2,3-dihydrobenzo[b][1,4]dioxin-6-yl)-2-methylbenzyl)oxy)benzyl)-D-serinate]
19 ± 4		5.1 ± 0.3	5.09 ± 0.29		2.42	COCCNCc1cc(Cl)c(OCc2cccc(-c3ccc4c(c3)OCCO4)c2C)cc1OCc1ccnc(C#N)c1 [Compound 5d, 4-((4-Chloro-5-((3-(2,3-dihydrobenzo[b][1,4]dioxin-6-yl)-2-methylbenzyl)oxy)-2-(((2-methoxyethyl)amino)methyl)phenoxy)methyl)picolinonitrile]
589 ± 178		5.6 ± 0.4	5.61 ± 0.37			CC(=O)N1CCN(Cc2cc(Cl)c(OCc3cccc(-c4ccc5c(c4)OCCO5)c3C)cc2OCc2cccc(C#N)c2)C1=O [Compound 5e, 3-((2-((3-Acetyl-2-oxoimidazolidin-1-yl)methyl)-4-chloro-5-((3-(2,3-dihydrobenzo[b][1,4]dioxin-6-yl)-2-methylbenzyl)oxy)phenoxy)methyl)benzonitrile]
